Reference: PubChem BioAssay (NCI)
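A five-concentration, 48-hour dose response in 96-well plates underlies each endpoint, interpolated linearly between surrounding concentrations. Here, GI50 denotes the concentration required for 50% inhibition of growth. TGI marks complete inhibition of growth.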

Key:
Experiment in all cases: NCI-60 cell line screen, 48 h; in the data active means GI50 below about 0.43 µM; inactive means the rest
SNB-19 CNS = system: SNB-19 CNS
CAKI-1 renal = system: CAKI-1 renal
NCI/ADR-RES ovarian = system: NCI/ADR-RES ovarian
LOX IMVI melanoma = system: LOX IMVI melanoma
BT-549 breast = system: BT-549 breast
SF-295 CNS = system: SF-295 CNS
RXF 393 renal = system: RXF 393 renal
COLO 205 colon = system: COLO 205 colon
NCI-H23 lung = system: NCI-H23 lung
UO-31 renal = system: UO-31 renal
M14 melanoma = system: M14 melanoma
DU-145 prostate = system: DU-145 prostate
U251 CNS = system: U251 CNS
SK-MEL-28 melanoma = system: SK-MEL-28 melanoma
HCT-116 colon = system: HCT-116 colon
SR leukemia = system: SR leukemia
HL-60(TB) leukemia = system: HL-60(TB) leukemia
SF-268 CNS = system: SF-268 CNS
HOP-92 NSCLC = system: HOP-92 NSCLC
OVCAR-8 ovarian = system: OVCAR-8 ovarian
IGROV1 ovarian = system: IGROV1 ovarian
UACC-257 melanoma = system: UACC-257 melanoma
K-562 leukemia = system: K-562 leukemia
MALME-3M melanoma = system: MALME-3M melanoma
HS 578T breast = system: HS 578T breast
SNB-75 CNS = system: SNB-75 CNS
MDA-MB-435 = system: MDA-MB-435
T-47D breast = system: T-47D breast
TK-10 renal = system: TK-10 renal
ACHN renal = system: ACHN renal
UACC-62 melanoma = system: UACC-62 melanoma
HT29 colon = system: HT29 colon
CCRF-CEM leukemia = system: CCRF-CEM leukemia
A498 renal = system: A498 renal
OVCAR-5 ovarian = system: OVCAR-5 ovarian
NCI-H226 lung = system: NCI-H226 lung
RPMI-8226 leukemia = system: RPMI-8226 leukemia
SK-MEL-2 melanoma = system: SK-MEL-2 melanoma
EKVX NSCLC = system: EKVX NSCLC
MOLT-4 leukemia = system: MOLT-4 leukemia
HCC-2998 colon = system: HCC-2998 colon
NCI-H460 lung = system: NCI-H460 lung
PC-3 prostate = system: PC-3 prostate
SK-MEL-5 melanoma = system: SK-MEL-5 melanoma
786-0 renal = system: 786-0 renal
NCI-H522 lung = system: NCI-H522 lung
SK-OV-3 ovarian = system: SK-OV-3 ovarian
OVCAR-4 ovarian = system: OVCAR-4 ovarian
SW-620 colon = system: SW-620 colon
MCF7 breast = system: MCF7 breast
SF-539 CNS = system: SF-539 CNS
MDA-MB-231 breast = system: MDA-MB-231 breast
A549 NSCLC = system: A549 NSCLC
SN12C renal = system: SN12C renal
HCT-15 colon = system: HCT-15 colon
HOP-62 NSCLC = system: HOP-62 NSCLC
KM12 colon = system: KM12 colon

COc1cc(OC)c(/C=C/S(=O)(=O)Cc2ccc(OC)c(NC(=O)CCC(=O)NO)c2)c(OC)c1
256 nM: TGI (SK-MEL-5 melanoma)
active: GI50 (SNB-19 CNS) 46.3 nM | GI50 (CAKI-1 renal) < 15.9 nM | GI50 (NCI/ADR-RES ovarian) < 15.8 nM | GI50 (LOX IMVI melanoma) 29.6 nM | GI50 (BT-549 breast) 24.4 nM | GI50 (SF-295 CNS) 14.4 nM | GI50 (RXF 393 renal) 21.4 nM | GI50 (COLO 205 colon) 32.9 nM | GI50 (NCI-H23 lung) 49.9 nM | GI50 (UO-31 renal) 107 nM | GI50 (M14 melanoma) 18.8 nM | GI50 (DU-145 prostate) 45.1 nM | GI50 (U251 CNS) 38.7 nM | GI50 (HCT-116 colon) 27.8 nM | GI50 (SR leukemia) 20.3 nM | GI50 (HL-60(TB) leukemia) 26.2 nM | GI50 (SF-268 CNS) 102 nM | GI50 (HOP-92 NSCLC) 251 nM | GI50 (OVCAR-8 ovarian) 41.2 nM | GI50 (IGROV1 ovarian) 38.6 nM | GI50 (K-562 leukemia) < 15.4 nM | GI50 (HS 578T breast) 23 nM | GI50 (SNB-75 CNS) 18.4 nM | GI50 (ACHN renal) 33.2 nM | GI50 (UACC-62 melanoma) 19.8 nM | GI50 (HT29 colon) 38.7 nM | GI50 (CCRF-CEM leukemia) 35.3 nM | GI50 (A498 renal) < 13.4 nM | GI50 (OVCAR-5 ovarian) 55 nM | GI50 (NCI-H226 lung) 99.5 nM | GI50 (RPMI-8226 leukemia) 45.2 nM | GI50 (EKVX NSCLC) 57.3 nM | GI50 (MOLT-4 leukemia) 46.7 nM | GI50 (HCC-2998 colon) 34.5 nM | GI50 (NCI-H460 lung) 34 nM | GI50 (PC-3 prostate) 31.1 nM | GI50 (SK-MEL-5 melanoma) 29.9 nM | GI50 (786-0 renal) 43.6 nM | GI50 (NCI-H522 lung) < 12.6 nM | GI50 (SW-620 colon) 37.7 nM | GI50 (MCF7 breast) 25 nM | GI50 (SF-539 CNS) 26.1 nM | GI50 (MDA-MB-231 breast) 47.8 nM | GI50 (A549 NSCLC) 39.7 nM | GI50 (SN12C renal) 61.8 nM | GI50 (HCT-15 colon) 22.5 nM | GI50 (HOP-62 NSCLC) 67.5 nM | GI50 (KM12 colon) 30.7 nM
79.4 nM: TGI (A498 renal)
432 nM: TGI (SF-539 CNS)
72.4 nM: TGI (BT-549 breast)
> 37200 nM: TGI (SK-MEL-2 melanoma)
3680 nM: TGI (SNB-75 CNS)
88 nM: TGI (HL-60(TB) leukemia)
inactive: GI50 (SK-MEL-28 melanoma) > 84500 nM | GI50 (UACC-257 melanoma) > 100000 nM | GI50 (MALME-3M melanoma) > 100000 nM | GI50 (T-47D breast) 30600 nM | GI50 (TK-10 renal) > 100000 nM | GI50 (SK-OV-3 ovarian) 1170 nM
> 100000 nM: TGI (SNB-19 CNS) | TGI (CAKI-1 renal) | TGI (NCI/ADR-RES ovarian) | TGI (LOX IMVI melanoma) | TGI (SF-295 CNS) | TGI (RXF 393 renal) | TGI (NCI-H23 lung) | TGI (UO-31 renal) | TGI (M14 melanoma) | TGI (DU-145 prostate) | TGI (U251 CNS) | TGI (SK-MEL-28 melanoma) | TGI (HCT-116 colon) | TGI (SR leukemia) | TGI (SF-268 CNS) | TGI (HOP-92 NSCLC) | TGI (OVCAR-8 ovarian) | TGI (IGROV1 ovarian) | TGI (UACC-257 melanoma) | TGI (K-562 leukemia) | TGI (MALME-3M melanoma) | TGI (HS 578T breast) | TGI (T-47D breast) | TGI (TK-10 renal) | TGI (ACHN renal) | TGI (UACC-62 melanoma) | TGI (HT29 colon) | TGI (CCRF-CEM leukemia) | TGI (OVCAR-5 ovarian) | TGI (NCI-H226 lung) | TGI (RPMI-8226 leukemia) | TGI (EKVX NSCLC) | TGI (MOLT-4 leukemia) | TGI (HCC-2998 colon) | TGI (NCI-H460 lung) | TGI (PC-3 prostate) | TGI (786-0 renal) | TGI (SK-OV-3 ovarian) | TGI (OVCAR-4 ovarian) | TGI (SW-620 colon) | TGI (MCF7 breast) | TGI (MDA-MB-231 breast) | TGI (A549 NSCLC) | TGI (SN12C renal) | TGI (HCT-15 colon) | TGI (HOP-62 NSCLC) | TGI (KM12 colon)
31.5 nM: TGI (MDA-MB-435)
